Measurements published in paper PMC3782441, “Putative Bioactive Motif of Tritrpticin Revealed by an Antibody with Biological Receptor-Like Properties” (PLoS ONE, 2013).
Converted amounts (≈) assume the structure as drawn. “Also recorded” adds a separate entry of the source. Read-outs that look alike come from different tables or passages of the source. Where no end group is shown, it is not given here.

Tests used:
[1] = system: E. coli BL21λD3; format: cell-based; settings: BL21λD3, 2 h
Method: (§1) Radial diffusion assay using double-layered agarose involved incubating ~ 2 x 10^6 mid-log phase bacterial cells with 50 nmol of peptide solution in nutrient-poor agarose at 37°C for 3 h. […] Minimum inhibitory concentration (MIC) was determined by broth microdilution method in which ~10^4 bacterial cells in 100 µl of 10 mM phosphate buffer were incubated for with serially diluted peptide solution in a 96-well microtiter plate for 2 hrs at 37°C. Addition of LB medium subsequently was used to ascertain the minimum peptide concentration sufficient to prevent bacterial growth, observable at OD600.

[2] = system: E. coli ATCC25922; format: cell-based; settings: ATCC25922, 2 h
Method: as §1

[3] = system: different bacterial strains; assay: Antimicrobial activity against different bacterial strains (radial diffusion, MIC); format: cell-based
Method: as §1

[4] = system: E. coli BL21λD3; assay: Radial diffusion assay, E. coli BL21λD3; format: cell-based; settings: 50 nmol of peptide, 37°C for 3 h
Method: as §1

[5] = system: calmodulin; settings: ref [19]; cited from earlier work
Description: (§2) It is now well established that antimicrobial peptides are an important component of the innate defenses in a wide variety of species. They display broad spectrum of activity, rapid killing kinetics, and a lower incidence of generating resistance and are being increasingly explored as an alternative to conventional antibiotics especially as more and more drug resistant strains emerge. As most of these peptides kill microorganisms rapidly as compared to other antibiotics, development of resistance to them also is less likely. One of the large classes of antimicrobial pepti ...

[6] = system: topoisomerase I; settings: ref [19]; cited from earlier work
Description: as §2

[7] = ref [20]; cited from earlier work
Description: as §2

[8] = system: DNA; settings: ref [17],[18]; cited from earlier work
Description: as §2

[9] = system: mAb 6C6D7; assay: SPR binding of K-tritrpticin (immobilised) to mAb 6C6D7; set-up: species or system BALB/c mice; settings: for ka (rate of association) / kd (rate of dissociation): BIAcore 2000, CM4 chip, bivalent model; for Kd: KD = kdiss/kass, read-out: KD (dissociation constant); for ΔGeq (Gibbs free energy at equilibrium): ΔGeq = RTlnKD
Method: (§3) Affinity measurements were based on surface plasmon resonance (SPR) technique, carried out on BIAcore 2000 (GE Healthcare). K-tritrpticin was amine coupled to a CM4 chip (~6 resonance units) and mAb 6C6D7 was injected as analyte with a 6 min association/15 min dissociation phase. Regeneration was achieved by 0.1 N HCl. Interaction curves were simultaneously fit using bivalent model in BIAevaluation program to determine KD = kdiss/kass and ΔGeq = RTlnKD, R is the universal gas constant and T is the temperature in kelvin. The temperature sensitivity of Ag association and dissociation rates of the Ab was assessed on the basis of the Arrhenius plots. The slopes of the Arrhenius plots provide the activation energy (Ea) for the corresponding steps. The individual thermodynamic parameters were calculated using the following equations: ΔHa/d = Ea-RT; ln(ka/d/T) = -ΔHa/d/RT + […] + ln(K'/h). In these equations K' represents Boltzmann’s constant and h the Planck’s constant. Using these equations, the corresponding values of ΔH, T∆S, and ΔG for association and dissociation as well as the corresponding net values at equilibrium were calculated.

[10] = target: T1, K-tritrpticin (pig); assay: SPR; BIAcore 2000; K-tritrpticin amine coupled to a CM4 chip (~6 RU), mAb 6C6D7 as analyte, 6 min association/15 min dissociation; bivalent model; 30 C
T1 sequence (peptide): KVRRFPWWWPFLRR

[11] = target: T1, K-tritrpticin (pig); assay: SPR; BIAcore 2000; K-tritrpticin amine coupled to a CM4 chip (~6 RU), mAb 6C6D7 as analyte (62.5-1000 nM), 6 min association/15 min dissociation; bivalent model; 25 C
[12] = target: T1, K-tritrpticin (pig); assay: SPR; BIAcore 2000; K-tritrpticin amine coupled to a CM4 chip (~6 RU), mAb 6C6D7 as analyte, 6 min association/15 min dissociation; bivalent model; 20 C
[13] = target: T1, K-tritrpticin (pig); assay: SPR; BIAcore 2000; K-tritrpticin amine coupled to a CM4 chip (~6 RU), mAb 6C6D7 as analyte, 6 min association/15 min dissociation; bivalent model; 35 C
[14] = target: T1, K-tritrpticin (pig); assay: SPR; BIAcore 2000; K-tritrpticin amine coupled to a CM4 chip (~6 RU), mAb 6C6D7 as analyte, 6 min association/15 min dissociation; bivalent model; 15 C
[15] = system: BSA; assay: ELISA of hybridoma clones on BSA (negative control); format: binding
Description: (§4) The sera from the immunized mouse were checked for anti-tritrpticin antibody titers. The highest responder of the group of mice was then sacrificed to harvest B cells from the spleen. The cells were allowed to fuse with the SP2/0 myeloma cells, maintained in log phase, in the presence of PEG1600 (Sigma-Aldrich). The cells were subjected to hypoxanthine-aminopterin-thymidine (Sigma) selection in DMEM (PAA Laboratories GmbH, Austria) in which only the hybrid cells are able to survive and grow. The supernatant of the wells with colonies of hybrid cells was screened for the presence of peptide recognizing Ab by ELISA, in which tritrpticin was used as coating antigen. The positive clones were further subcloned using limited dilution technique to ensure monoclonality.
(§5) The binding of the Ab from cell supernatant or in purified form, to the various peptide ligands was assayed by indirect ELISA. The peptide analogs were used as coating Ag at a concentration of 10 µg per well on 96-well immunosorbent plates. […] HRP –labeled goat anti-mouse IgG was used as secondary Ab (Jackson Immuno Research) and o-phenylenediamine (Sigma) and H2O2 were used as peroxidase substrate. Absorbance was recorded at 490 nm after addition of 1 N H2SO4.

[16] = ELISA of hybridoma clones on tritrpticin; format: binding; settings: culture supernatant screening
Description: as §4, §5

[17] = ELISA of hybridoma clones on indolicidin; format: binding
Description: as §4, §5

[18] = SPR binding of mAb 6C6D7 (analyte) to peptide antigen K-tritrpticin
Method: as §3

[19] = equilibrium, all temperatures 15-35 °C, Arrhenius plot

CC(C)C[C@H](NC(=O)[C@H](Cc1ccccc1)NC(=O)[C@@H]1CCCN1C(=O)[C@H](Cc1c[nH]c2ccccc12)NC(=O)[C@H](Cc1c[nH]c2ccccc12)NC(=O)[C@H](Cc1c[nH]c2ccccc12)NC(=O)[C@@H]1CCCN1C(=O)[C@H](Cc1ccccc1)NC(=O)[C@H](CCCNC(=N)N)NC(=O)[C@H](CCCNC(=N)N)NC(=O)[C@@H](N)C(C)C)C(=O)N[C@@H](CCCNC(=N)N)C(=O)N[C@@H](CCCNC(=N)N)C(=O)O [Tritrpticin]
MIC [1]: 3.12 µM (≈ 5.94 µg/mL) | MIC [2]: 3.12 µM (≈ 5.94 µg/mL)

EHGTPPRVMSSM [unrelated peptide used as negative control, reference compound]
formation of clearance zone ([3]; 50 nmoles of peptide, radial diffusion, different bacterial strains): did not led to the formation of clearance zone | formation of clearance zone [4]: did not led to the formation of clearance zone

ILPWKWPWWPWRR [indolicidin, closely related cathelicidin peptide indolicidin ([…])]
interaction with calmodulin [5]: interaction | interaction with topoisomerase I [6]: interaction | interaction with ATP [7]: interaction | interaction with DNA [8]: interaction

K-tritrpticin: tritrpticin with lysine introduced at the N terminus (KVRRFPWWWPFLRR)
ka (rate of association) ([9]; 15 °C): 24400 M⁻¹ s⁻¹ | kd (rate of dissociation) ([9]; 15 °C): 0.00515 s⁻¹ | Kd ([9]; 15 °C): 211 nM | ΔGeq (Gibbs free energy at equilibrium) ([9]; 15 °C): -8.80 kcal/mol | ka (rate of association) ([9]; 20 °C): 37900 M⁻¹ s⁻¹ | kd (rate of dissociation) ([9]; 20 °C): 0.0115 s⁻¹ | Kd ([9]; 20 °C): 303 nM | ΔGeq (Gibbs free energy at equilibrium) ([9]; 20 °C): -8.74 kcal/mol | ka (rate of association) ([9]; 25 °C): 39100 M⁻¹ s⁻¹ | kd (rate of dissociation) ([9]; 25 °C): 0.0137 s⁻¹ | Kd ([9]; 25 °C): 350 nM | ΔGeq (Gibbs free energy at equilibrium) ([9]; 25 °C): -8.80 kcal/mol | kd (rate of dissociation) ([9]; 30 °C): 0.0231 s⁻¹ | Kd ([9]; 30 °C): 545 nM | ΔGeq (Gibbs free energy at equilibrium) ([9]; 30 °C): -8.68 kcal/mol | ka (rate of association) ([9]; 35 °C): 54100 M⁻¹ s⁻¹ | kd (rate of dissociation) ([9]; 35 °C): 0.0343 s⁻¹ | Kd ([9]; 35 °C): 634 nM | ΔGeq (Gibbs free energy at equilibrium) ([9]; 35 °C): -8.73 kcal/mol

YHDRPPPRPFKH-OH [12PhD1]
antimicrobial activity compared with tritrpticin [3]: lower though qualitatively similar broad spectrum antimicrobial activity as tritrpticin | antibiotic activity ([3]; radial diffusion and MIC, bacterial strains): broad spectrum antibiotic activity | MIC [1]: 400 µM | MIC [2]: 400 µM

B1: anti-tritrpticin monoclonal antibody 6C6D7 (antibody, V domains shown)
VH: VELQESGPELVKPGASVKVSCKASGYSSTDYNMNWVKQSHGKSLEWIGSFDPYNGGITYNQKFEGKATLTVDKSSNTAFMHLNSLTSEDSAVYYCAKYFGYDAWFAYWGQGTLVTVST
VL: FIVMTQTPASLAVSLGQRATISCKASQSVDYGGDSYLNWYQQKPGQPPKLLIYAASNLESGIPARFSGSGSGTDFTLNIHPVEEEDAATYFCQQSHEDPLTFGAGTKLELR
Kd [10]: 545 nM | koff [10]: 0.0231 s⁻¹ | kon [10]: 44200 M⁻¹ s⁻¹ | Kd [11]: 350 nM | koff [11]: 0.0137 s⁻¹ | kon [11]: 39100 M⁻¹ s⁻¹ | Kd [12]: 303 nM | koff [12]: 0.0115 s⁻¹ | kon [12]: 37900 M⁻¹ s⁻¹ | Kd [13]: 634 nM | koff [13]: 0.0343 s⁻¹ | kon [13]: 54100 M⁻¹ s⁻¹ | Kd [14]: 211 nM | koff [14]: 0.00515 s⁻¹ | kon [14]: 24400 M⁻¹ s⁻¹

B2: 6C6: anti-tritrpticin hybridoma clone, subcloned as 6C6D7 (antibody, V domains shown)
VH: VELQESGPELVKPGASVKVSCKASGYSSTDYNMNWVKQSHGKSLEWIGSFDPYNGGITYNQKFEGKATLTVDKSSNTAFMHLNSLTSEDSAVYYCAKYFGYDAWFAYWGQGTLVTVST
VL: FIVMTQTPASLAVSLGQRATISCKASQSVDYGGDSYLNWYQQKPGQPPKLLIYAASNLESGIPARFSGSGSGTDFTLNIHPVEEEDAATYFCQQSHEDPLTFGAGTKLELR
binding to BSA (ELISA) [15]: negligible binding; also recorded: not able to bind | binding to tritrpticin (ELISA) [16]: significant binding | binding to indolicidin (ELISA) [17]: not able to bind

B3: mAb 6C6D7: anti-tritrpticin monoclonal antibody, 6C6 subcloned as 6C6D7 (antibody, V domains shown)
VH: VELQESGPELVKPGASVKVSCKASGYSSTDYNMNWVKQSHGKSLEWIGSFDPYNGGITYNQKFEGKATLTVDKSSNTAFMHLNSLTSEDSAVYYCAKYFGYDAWFAYWGQGTLVTVST
VL: FIVMTQTPASLAVSLGQRATISCKASQSVDYGGDSYLNWYQQKPGQPPKLLIYAASNLESGIPARFSGSGSGTDFTLNIHPVEEEDAATYFCQQSHEDPLTFGAGTKLELR
fold decrease in affinity (KD) ([18]; 15 °C to 35 °C): 3 fold | fold increase in kdiss ([18]; 15 °C to 35 °C): approximately 7 fold | fold increase in the association rate constant ([18]; 15 °C to 35 °C): 2 fold | kass ([18]; 25 °C): 39100 M⁻¹ s⁻¹ | kdiss ([18]; 25 °C): 0.0137 s⁻¹ | Kd ([18]; 25 °C, read-out: affinity (KD)): 350 nM | temperature sensitivity of dissociation phase ([18]; Arrhenius plots, 15-35 °C): more sensitive to variation in temperature in comparison with the association phase | enthalpy contribution to binding (ΔH) [18, 19]: marginally unfavorable | entropy contribution to binding (TΔS) [18, 19]: highly favorable
